This note sets out measurements from PubChem BioAssay AID2060898 (Molecular Pharmacology Branch, DTP, NCI, 2025).

Values joined by “and” are separate entries in the source; they are usually repeats but may differ in a detail not shown here. Identical values can stand only once.

The test system of the experiment is 616215-338-R-J1-PDC complex spheroid viability. Kind of experiment: Anticancer human tumor 616215-338-R-J1-PDC patient-derived colon adenocarcinoma cell line growth inhibition [RAS]. The following applies: for viability, T/C: stronger effect = lower value. The method in brief: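 Multi-cell-type spheroids: tumor cells plus HUVEC endothelial cells and mesenchymal stem cells. RAS-pathway inhibitors were combined with targeted agents, each dosed in half-log steps down from clinical Cmax, or from 10 microM when Cmax was unknown.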
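Further: spheroids exposed to agents for seven days before viability readout.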
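Wherever viability, T/C is given: 100% = DMSO vehicle control viability.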

As to `Nc1ccn(C2OC(CO)C(O)C2(F)F)c(=O)n1` (stereo not drawn) + C#Cc1c(F)ccc2cc(O)cc(-c3ncc4c(N5CC6CCC(C5)N6)nc(OCC56CCCN5CC(F)C6)nc4c3F)c12, the 50% inhibitory concentration (IC50) reads like this: (curve of first compound, second compound 0.0316 µM) 9.25 nM; (curve of first compound, second compound 0.1 µM) 9.98 nM; (curve of first compound, second compound 0.316 µM) 9.74 nM; (curve of first compound, second compound 1 µM) 5.94 nM; (curve of first compound, second compound 3.16 µM) 3.91 nM; (curve of first compound, second compound 10 µM) 3.26 nM. In addition, the viability, T/C (second compound 0.0316 µM, first compound 0.00316 µM) is 113%; the viability, T/C (second compound 0.0316 µM, first compound 0.01 µM) is 44.9%; the viability, T/C (second compound 0.0316 µM, first compound 0.0316 µM) was 24.6%; the viability, T/C (second compound 0.0316 µM, first compound 0.1 µM) was 13%; the viability, T/C (second compound 0.0316 µM, first compound 0.316 µM) is 13.2%; the viability, T/C (second compound 0.0316 µM, first compound 1 µM) was 16.3%. Further, the viability, T/C (second compound 0.1 µM, first compound 0.00316 µM) is 117%; the viability, T/C (second compound 0.1 µM, first compound 0.01 µM) is 48.8%; the viability, T/C (second compound 0.1 µM, first compound 0.0316 µM) is 28.1%; the viability, T/C (second compound 0.1 µM, first compound 0.1 µM) is 14.9%; the viability, T/C (second compound 0.1 µM, first compound 0.316 µM) was 14.4%; the viability, T/C (second compound 0.1 µM, first compound 1 µM) was 14.6%. Besides, the viability, T/C is 90% (second compound 0.316 µM, first compound 0.00316 µM); 48.5% (second compound 0.316 µM, first compound 0.01 µM); 28.4% (second compound 0.316 µM, first compound 0.0316 µM); 15.6% (second compound 0.316 µM, first compound 0.1 µM); 13.9% (second compound 0.316 µM, first compound 0.316 µM); 14.8% (second compound 0.316 µM, first compound 1 µM). For the same molecule, the viability, T/C (second compound 1 µM, first compound 0.00316 µM) is 77%; the viability, T/C (second compound 1 µM, first compound 0.01 µM) is 24.4%; the viability, T/C (second compound 1 µM, first compound 0.0316 µM) was 26.7%; the viability, T/C (second compound 1 µM, first compound 0.1 µM) is 12.7%; the viability, T/C (second compound 1 µM, first compound 0.316 µM) was 10.8%; the viability, T/C (second compound 1 µM, first compound 1 µM) was 12.1%. For the same molecule, the viability, T/C is 55.9% (second compound 3.16 µM, first compound 0.00316 µM); 24.1% (second compound 3.16 µM, first compound 0.01 µM); 19% (second compound 3.16 µM, first compound 0.0316 µM); 10.6% (second compound 3.16 µM, first compound 0.1 µM); 11.6% (second compound 3.16 µM, first compound 0.316 µM); 12.1% (second compound 3.16 µM, first compound 1 µM). For the same molecule, the viability, T/C reads like this: (second compound 10 µM, first compound 0.00316 µM) 50.9%; (second compound 10 µM, first compound 0.01 µM) 21.4%; (second compound 10 µM, first compound 0.0316 µM) 16.3%; (second compound 10 µM, first compound 0.1 µM) 12.4%; (second compound 10 µM, first compound 0.316 µM) 10%; (second compound 10 µM, first compound 1 µM) 10.9%.

Regarding `C=CC(=O)Nc1cc(Nc2nccc(-c3cn(C)c4ccccc34)n2)c(OC)cc1N(C)CCN(C)C`, the viability, T/C was 96.5% [middle of 4 runs] (compound 0.00316 µM); 100% (2×) and 96% and 97.4% (compound 0.01 µM); 103% [middle of 4 runs] (compound 0.0316 µM); 105% [middle of 4 runs] (compound 0.1 µM); 109% [middle of 4 runs] (compound 0.316 µM); 74.3% [middle of 4 runs] (compound 1 µM). The IC50 (curve of compound) is > 1000 nM.

As for `O=C(c1ccc(F)c(F)c1Nc1ccc(I)cc1F)N1CC(O)([C@@H]2CCCCN2)C1`, the viability, T/C by setting is: (compound 0.00316 µM) 111% [middle of 4 runs]; (compound 0.01 µM) 102% (2×) and 95.7% and 113%; (compound 0.0316 µM) 81.5% [middle of 4 runs]; (compound 0.1 µM) 41.5% [middle of 4 runs]; (compound 0.316 µM) 19.9% [middle of 4 runs]; (compound 1 µM) 5.56% [middle of 4 runs]. Moreover, the IC50 (curve of compound) was 78 nM [middle of 4 runs].

Turning to `C[C@@H](NC(=O)c1ncnc(N)c1Cl)c1ncc(C(=O)Nc2cc(C(F)(F)F)c(Cl)cn2)s1`, the viability, T/C (compound 0.0316 µM) is 102% [middle of 4 runs]; the viability, T/C (compound 0.1 µM) was 110% [middle of 4 runs]; the viability, T/C (compound 0.316 µM) is 112% [middle of 4 runs]; the viability, T/C (compound 1 µM) was 124% and 105% and 112% (2×). The IC50 (curve of compound) is > 10000 nM and 8870 nM.

Consider `CC(Nc1ccc2c(c1)OCCn1cc(N3C(=O)OCC3C(F)F)nc1-2)C(N)=O` (stereo not drawn) + CCn1c(-c2cc(N3CCN(C)CC3)cnc2C(C)OC)c2c3cc(ccc31)-c1csc(n1)CC(NC(=O)C1CC1C)C(=O)N1CCCC(N1)C(=O)OCC(C)(C)C2, for which the IC50 (curve of first compound, second compound 0.000949 µM) was > 10000 nM; the IC50 (curve of first compound, second compound 0.003 µM) was > 10000 nM; the IC50 (curve of first compound, second compound 0.00949 µM) was determined as 281 nM; the IC50 (curve of first compound, second compound 0.03 µM) was < 31.6 nM; the IC50 (curve of first compound, second compound 0.0949 µM) was < 31.6 nM; the IC50 (curve of first compound, second compound 0.3 µM) is < 31.6 nM. Moreover, the viability, T/C (second compound 0.000949 µM, first compound 0.0316 µM) was 114%; the viability, T/C (second compound 0.000949 µM, first compound 0.1 µM) was 106%; the viability, T/C (second compound 0.000949 µM, first compound 0.316 µM) is 103%; the viability, T/C (second compound 0.000949 µM, first compound 1 µM) was 117%; the viability, T/C (second compound 0.000949 µM, first compound 3.16 µM) was 94.6%; the viability, T/C (second compound 0.000949 µM, first compound 10 µM) was 74.5%. The viability, T/C reads like this: (second compound 0.003 µM, first compound 0.0316 µM) 109%; (second compound 0.003 µM, first compound 0.1 µM) 99.5%; (second compound 0.003 µM, first compound 0.316 µM) 85.5%; (second compound 0.003 µM, first compound 1 µM) 83.2%; (second compound 0.003 µM, first compound 3.16 µM) 91.4%; (second compound 0.003 µM, first compound 10 µM) 69%. Also, the viability, T/C (second compound 0.00949 µM, first compound 0.0316 µM) was 90.9%; the viability, T/C (second compound 0.00949 µM, first compound 0.1 µM) was 63.5%; the viability, T/C (second compound 0.00949 µM, first compound 0.316 µM) was 48.4%; the viability, T/C (second compound 0.00949 µM, first compound 1 µM) is 48.9%; the viability, T/C (second compound 0.00949 µM, first compound 3.16 µM) is 47.7%; the viability, T/C (second compound 0.00949 µM, first compound 10 µM) is 48%. Further, the viability, T/C by setting is: (second compound 0.03 µM, first compound 0.0316 µM) 37.4%; (second compound 0.03 µM, first compound 0.1 µM) 41.2%; (second compound 0.03 µM, first compound 0.316 µM) 28.6%; (second compound 0.03 µM, first compound 1 µM) 37.1%; (second compound 0.03 µM, first compound 3.16 µM) 38.1%; (second compound 0.03 µM, first compound 10 µM) 28.2%. Further, the viability, T/C reads like this: (second compound 0.0949 µM, first compound 0.0316 µM) 33.3%; (second compound 0.0949 µM, first compound 0.1 µM) 31.9%; (second compound 0.0949 µM, first compound 0.316 µM) 28.7%; (second compound 0.0949 µM, first compound 1 µM) 25.9%; (second compound 0.0949 µM, first compound 3.16 µM) 23.2%; (second compound 0.0949 µM, first compound 10 µM) 25.3%. In addition, the viability, T/C was 37.8% (second compound 0.3 µM, first compound 0.0316 µM); 40.5% (second compound 0.3 µM, first compound 0.1 µM); 27.5% (second compound 0.3 µM, first compound 0.316 µM); 29.3% (second compound 0.3 µM, first compound 1 µM); 25.3% (second compound 0.3 µM, first compound 3.16 µM); 23.5% (second compound 0.3 µM, first compound 10 µM).

As a reminder, the IC50 is the concentration at which inhibition is half-maximal. For orientation: viability, T/C means the ratio of treated to control.
